Measurements reported in PubChem BioAssay (NCI).
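At the GI50, growth is halved. At the TGI there is no net growth.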

What was measured:
Assay in all cases: growth of human tumour cells (NCI), 384-well format
[1] = system: UACC-257 melanoma
[2] = system: IGROV1 ovarian
[3] = system: U251 glioblastoma
[4] = system: ACHN renal
[5] = system: SNB-75 CNS
[6] = system: HOP-92 NSCLC
[7] = system: SK-OV-3 ovarian
[8] = system: HOP-62 NSCLC
[9] = system: CAKI-1 renal
[10] = system: SF-268 CNS
[11] = system: TK-10 renal
[12] = system: 786-0 renal
[13] = system: SK-MEL-5 melanoma
[14] = system: HS 578T breast
[15] = system: DU-145 prostate
[16] = system: OVCAR-5 ovarian
[17] = system: UACC-62 melanoma
[18] = system: SW-620 colon
[19] = system: SK-MEL-2 melanoma
[20] = system: HL-60(TB) leukemia
[21] = system: SNB-19 CNS
[22] = system: COLO 205 colon
[23] = system: NCI-H522 lung
[24] = system: RXF 393 renal
[25] = system: SF-539 CNS
[26] = system: MDA-MB-435 melanoma
[27] = system: EKVX NSCLC
[28] = system: HT29 colon
[29] = system: NCI-H460 NSCLC
[30] = system: MOLT-4 leukemia
[31] = system: MDA-MB-231 breast
[32] = system: HCT-15 colon
[33] = system: K-562 leukemia
[34] = system: NCI-H23 lung
[35] = system: NCI-H226 lung
[36] = system: SR leukemia
[37] = system: MALME-3M melanoma
[38] = system: UO-31 renal
[39] = system: T-47D breast
[40] = system: OVCAR-4 ovarian
[41] = system: SN12C renal
[42] = system: PC-3 prostate
[43] = system: A498 renal
[44] = system: HCT-116 colon
[45] = system: KM12 colon
[46] = system: OVCAR-3 ovarian
[47] = system: OVCAR-8 ovarian
[48] = system: NCI-H322M lung
[49] = system: SK-MEL-28 melanoma
[50] = system: MDA-MB-468 breast
[51] = system: BT-549 breast
[52] = system: M14 melanoma
[53] = system: SF-295 CNS

Nc1nn2cc(F)cnc2c1C(=O)Nc1cncc(F)c1N1CCC(C(=O)N2CCN(C3COC3)CC2)CC1
GI50 [1]: 332 nM | TGI [1]: 1890 nM | GI50 [2]: 170 nM | TGI [2]: 1540 nM | GI50 [3]: 141 nM | TGI [3]: 1170 nM | GI50 [4]: 46.9 nM | TGI [4]: 251 nM | GI50 [5]: 219 nM | TGI [5]: 1990 nM | GI50 [6]: 47.9 nM | TGI [6]: 539 nM | GI50 [7]: 57.3 nM | TGI [7]: 264 nM | GI50 [8]: 21.4 nM | TGI [8]: 218 nM | GI50 [9]: 185 nM | TGI [9]: 1470 nM | GI50 [10]: 77.6 nM | TGI [10]: 1740 nM | GI50 [11]: 29.9 nM | TGI [11]: 231 nM | GI50 [12]: 103 nM | TGI [12]: 323 nM | GI50 [13]: 98.6 nM | TGI [13]: 334 nM | GI50 [14]: 13 nM | TGI [14]: 42.2 nM | GI50 [15]: 70.5 nM | TGI [15]: 954 nM | GI50 [16]: 543 nM | TGI [16]: > 100000 nM | GI50 [17]: 223 nM | TGI [17]: 1570 nM | GI50 [18]: 227 nM | TGI [18]: > 100000 nM | GI50 [19]: 24.1 nM | TGI [19]: 80.2 nM | GI50 [20]: 37.4 nM | TGI [20]: 83.8 nM | GI50 [21]: 407 nM | TGI [21]: 4350 nM | GI50 [22]: 218 nM | TGI [22]: 2090 nM | GI50 [23]: 183 nM | TGI [23]: 735 nM | GI50 [24]: 16 nM | TGI [24]: 53.2 nM | GI50 [25]: 33 nM | TGI [25]: 149 nM | GI50 [26]: 35.7 nM | TGI [26]: 308 nM | GI50 [27]: 132 nM | TGI [27]: 615 nM | GI50 [28]: 302 nM | TGI [28]: > 100000 nM | GI50 [29]: 20.8 nM | TGI [29]: 156 nM | TGI [30]: 11.8 nM | GI50 [31]: 789 nM | TGI [31]: > 100000 nM | GI50 [32]: 34.7 nM | TGI [32]: 208 nM | GI50 [33]: 48.2 nM | TGI [33]: 179 nM | GI50 [34]: 16.9 nM | TGI [34]: 55.2 nM | GI50 [35]: 327 nM | TGI [35]: 2240 nM | TGI [36]: 22.1 nM | GI50 [37]: 18.8 nM | TGI [37]: 53.2 nM | GI50 [38]: 194 nM | TGI [38]: 717 nM | GI50 [39]: 4730 nM | TGI [39]: > 100000 nM | GI50 [40]: 62.5 nM | TGI [40]: 2440 nM | GI50 [41]: 376 nM | TGI [41]: 2930 nM | GI50 [42]: 296 nM | TGI [42]: 2820 nM | GI50 [43]: 34.5 nM | TGI [43]: 207 nM | GI50 [44]: 92.9 nM | TGI [44]: 1750 nM | GI50 [45]: 32.7 nM | TGI [45]: 727 nM | GI50 [46]: 215 nM | TGI [46]: 1420 nM | GI50 [47]: 174 nM | TGI [47]: 558 nM | GI50 [48]: 33.9 nM | TGI [48]: 306 nM | GI50 [49]: 2040 nM | TGI [49]: > 100000 nM | GI50 [50]: 29.4 nM | TGI [50]: 324 nM | GI50 [51]: 24.5 nM | TGI [51]: 84.4 nM | GI50 [52]: 35 nM | TGI [52]: 378 nM | GI50 [53]: 31.5 nM | TGI [53]: 171 nM
